# Reference: patent US8796301B2, “Therapeutic or prophylactic agent for dyskinesia” (Toray Industries, Inc., priority 2007, dated 2014)
# How the values were obtained:
# dyskinesia = settings: WO00/003715; cited from earlier work
# [1] = system: L-DOPA-induced dyskinesia in a rat model of Parkinson's disease; test: L-DOPA-induced dyskinesia in a rat model of Parkinson's disease (6-hydroxydopamine lesion), dyskinesia score; assay type: in vivo
SMILES,effect on dyskinesia (dyskinesia),"effect on L-DOPA-induced dyskinesia (dyskinesia score vs control score) ([1]; 10 mg/kg subcutaneous, with L-DOPA 20 mg/kg oral, FIG. 2, FIG. 3, FIG. 4)","effect on L-DOPA-induced dyskinesia (dyskinesia score vs control score) ([1]; 30 mg/kg subcutaneous, with L-DOPA 20 mg/kg oral, FIG. 4)","effect on L-DOPA-induced dyskinesia (dyskinesia score vs control score) ([1]; 10 μg/kg subcutaneous, simultaneously with L-DOPA 20 mg/kg oral, FIG. 1)"
COC(=O)/C=C/C(=O)N[C@@H]1CC[C@@]2(O)[C@H]3Cc4ccc(O)c5c4[C@@]2(CCN3CC2CC2)[C@H]1O5 [β-funaltrexamine],suppresses dyskinesia,did not influence L-DOPA-induced dyskinesia at all,did not influence L-DOPA-induced dyskinesia at all,
"CN(C(=O)/C=C/c1ccoc1)[C@@H]1CC[C@@]2(O)[C@H]3Cc4ccc(O)c5c4[C@@]2(CCN3CC2CC2)[C@H]1O5.Cl [Compound 1, (−)-17-(cyclopropylmethyl)-3,14β-dihydroxy-4,5α-epoxy-6β-[N-methyl-trans-3-(3-furyl)acrylamido]morphinan hydrochloride]",,,,significantly suppressed dyskinesia
